US20020091086A1, “Peptides that block viral infectivity and methods of use thereof” (priority 1999, published 2002)
Peptide text beside a SMILES is read from it.

Key:
[1] = system: HIV-1 isolate p7300 (low PI); experiment: resistant HIV-1 isolates in PBMC, p24 ELISA; type: cell-based; details: GPG 100 μM, 14 days post infection
GPG-deleted mutant mp10 = experiment: infectivity in MT-2 cells, p24 ELISA, GPG-deleted mutant mp10; type: cell-based, HIV-1
Description: (§1) Accordingly, the ability of GPG-NH2 to inhibit the infectivity of wild-type and V3-loop deletion mutants (GPG domain) in MT-2 cells was determined. In these experiments, approximately 200,000 MT-2 cells were infected with HIV-1Bru wild-type and GPG-deleted mutants mp8 and mp10 at 25 TCID50 to test the inhibitory effect of GPG-NH2 The MT-2 cells were resuspended in 1 ml of RPMT 1640 medium supplemented with 10% (v/v) heat-inactivated fetal bovine serum (FBS, GIBCO), penicillin (100μ/ml), streptomycin (100μ/ml) and Polybrene (Sigma 2 μg/ml) with or without the presence of GPG-NH2 at concentration 20 of μM and 100 μM. Thereafter, viruses were added at 25 TCID50 in a volume of 20-30 μl. Cells were incubated with virus at 37° C. for 16 hr then loosely pelleted by centrifugation at 170×g for 7 minutes. The cells were then washed three times in RPMI medium without peptides at room temperature by cell sedimentation at 170×g for 7 minutes as above. After the final wash, the cells were resuspended in RPMI culture medium in 24-well plate (Costar corporation) then kept at 37° C. in 5% CO2 with humidity. Culture supernatants were collected when medium was changed at day 4, 7, 11 and 14 post infection. To monitor the replication of virus, HIV-1 p24 antigen protein in the supernatants from day 7 and 14 was assayed by a ELISA kit (Abbott Laboratories) which has a linear dose-response range from 20 pg to 640 pg of p24 per ml and the p24 amount can be determined with aid of the regression line.

[2] = system: HIV-1 isolate p7141 (high PI); experiment: resistant HIV-1 isolates in PBMC, p24 ELISA; type: cell-based; details: GPG 100 μM, 14 days post infection
[3] = single intravenous dose toxicity in adult mice; type: in vivo; details: intravenous injection in the tail vein, up to 1 g per kilo bodyweight
Description: In this example, the results from several in vivo toxicology studies on small peptides administered in large doses to rodents are presented. In a first experiment, a large single dose of small peptide was delivered to mice and the toxic effects were analyzed. […] In a second experiment, several doses of varying amounts of a small peptide were delivered to mice for almost three weeks. Groups of mice (five mice in each group) were given intraperitoneal injections of GPG-NH2 (0.01, 0.1 and 1 g per kilo bodyweight and day, respectively) starting at an age of 6 days. Daily injections were continued for 18 days. […] In a similar experiment, a four week toxicology study of GPG-NH2 was performed by Scantox A/S in Denmark. GPG-NH2 was given orally to rats at doses up to 1 g per kilo bodyweight per day for twenty eight days.

GPG-deleted mutant mp8 = experiment: infectivity in MT-2 cells, p24 ELISA, GPG-deleted mutant mp8; type: cell-based, HIV-1
Description: as §1

HIV-1 DNA = experiment: Southern blot of proviral DNA in HIV-1 infected H-9 cells; type: cell-based; details: 0-2,000 μM; first 24 h
Description: To study proviral DNA and viral RNA synthesis, DNA and RNA from HIV-1 infected H-9 cells cultured in the presence of a small peptide were prepared at various time points (0-48 h).

HSV-1 = type: cell-based; details: concentrations up to 1 mM

With `NCC(=O)N1CCC[C@H]1C(=O)NCC(N)=O` [GPG-NH2, glycyl-prolyl-glycine amide] (H-Gly-Pro-Gly-NH2) the “% reduction” value [1] was “(100%)”, the “HIV-1 p24” value [1] was <500 pg/mL and the p24 (GPG-deleted mutant mp10; GPG 20 μM, Day 7) was 1560 pg/mL. The reduction (%) (GPG-deleted mutant mp10; GPG 20 μM, Day 7) was 50%, the p24 (GPG-deleted mutant mp10; GPG 20 μM, Day 14) was 51500 pg/mL and the reduction (%) (GPG-deleted mutant mp10; GPG 20 μM, Day 14) was 89%. For the same compound, the p24 (GPG-deleted mutant mp10; GPG 100 μM, Day 7) was 173 pg/mL, the reduction (%) (GPG-deleted mutant mp10; GPG 100 μM, Day 7) was 94% and the p24 (GPG-deleted mutant mp10; GPG 100 μM, Day 14) was 47700 pg/mL. The reduction (%) (GPG-deleted mutant mp10; GPG 100 μM, Day 14) was 90%, the “% reduction” value [2] was “(100%)” and the “HIV-1 p24” value [2] was <500 pg/mL. For the same compound, the toxic effects [3] was “no apparent toxic effects”, the p24 (GPG-deleted mutant mp8; GPG 20 μM, Day 7) was 2420 pg/mL and the reduction (%) (GPG-deleted mutant mp8; GPG 20 μM, Day 7) was 24%. For the same compound, the p24 (GPG-deleted mutant mp8; GPG 20 μM, Day 14) was 69100 pg/mL, the reduction (%) (GPG-deleted mutant mp8; GPG 20 μM, Day 14) was 53% and the p24 (GPG-deleted mutant mp8; GPG 100 μM, Day 7) was 208 pg/mL. For the same compound, the reduction (%) (GPG-deleted mutant mp8; GPG 100 μM, Day 7) was 93%, the p24 (GPG-deleted mutant mp8; GPG 100 μM, Day 14) was 7410 pg/mL and the reduction (%) (GPG-deleted mutant mp8; GPG 100 μM, Day 14) was 95%. The “HIV-1 entry and proviral DNA synthesis” value (HIV-1 DNA) was “no inhibitory effect” and the HSV-1 replication (HSV-1) was “failed to reduce HSV-1 replication”.
